Measured values published in article PMC10604444, “Extra-Synaptic GABAA Receptor Potentiation and Neurosteroid-Induced Learning Deficits Are Inhibited by GR3027, a GABAA Modulating Steroid Antagonist” (Biomolecules, 2023).
pEC50: −log10 of the molar value.

How the values were obtained:
[1] = test system: dissociated hypothalamic cells (medial preoptic area); test: Perforated patch recording of spontaneous miniature inhibitory postsynaptic currents (mIPSCs); assay type: cell-based, rat; details: 30 and 100 nM AP, holding potential −11 mV, n = 5, p < 0.05
Procedure: For the patch clamp studies, male Sprague-Dawley rats (n = 5, weight < 130 g) were housed at two or four rats per cage at 22 °C and with artificial daylight. Rats had free access to water and standard food. The regional ethics committee for animal research approved the experimental protocols. All procedures including animals were conducted in accordance with the ethical guidelines set by the European Union Directive 2010/63/EU for animal experiments.
Electrophysiological experiments: The methods used for electrophysiological recording and cell preparation have been described in detail elsewhere. A summary of the procedures is given below. […]
Protocol and analysis: A standard protocol was used for the experiments. Firstly, the current was recorded in the control solution (EC solution) for 30–60 s, followed by a 60–300 s test period with or without AP. The spontaneous miniature inhibitory postsynaptic currents (mIPSCs) were detected by visual inspection of current changes. […] The time-course and amplitude of the currents were measured semi-manually by using cursors and were fitted to an exponential decay curve by the curve-fitting routine of the pCLAMP software (Axon Instruments, Foster City, CA, USA). […] All the mIPSC values from the treatment period of the recorded cell (n = 6–11 events) were pooled and the mean was subjected to statistical analysis. […]

[2] = i.v. AP; cited from earlier work
[3] = target: T1, human α5β3γ2L GABAA receptors expressed in HEK-293 cells (Homo sapiens, UniProt P28472+P31644); test: Whole-cell patch clamp of GABA/THDOC-evoked currents, extra-synaptic protocol (Dynaflow); assay type: cell-based
T1 construct: The coding regions of the human GABAA receptor subunits were then amplified by PCR; expressed in transfected cells; host or cells: HEK-293 (permanently transfected, pcDNA3.1 vectors, CMV promoter)
From the text: Wild-type HEK-293 cells (passage 4, originating from Pasteur Institute, Paris, France) were permanently transfected with vectors including the human CMV promoter for the constitutive expression of the human α5, β3, and γ2L GABAA receptor subunits (α5β3γ2L) or the human α1, β2, and γ2L GABAA receptor subunits (α1β2γ2L). The production of the plasmids used in the sub-cloning of the different subunits is published in Rahman et al..
The electrophysiological recordings from HEK-293 cells were performed with the whole-cell voltage clamp technique, at room temperature (21–23 °C). After compensation for liquid junction potential, a steady holding potential of −17 mV was used in all experiments. Patch pipettes were pulled from borosilicate glass (Bergman Labora AB, Danderyd, Sweden) and polished to a resistance of 2–5 MΩ when filled with intracellular solution and immersed in a bath (extracellular) solution (for solutions, see below). The pipette tips were filled by immersion in standard intracellular solution and subsequent back-filling with intracellular solution. The recordings were made using an Axopatch 200B amplifier and a Digidata 1322A (Axon Instruments, Foster City, CA, USA) controlled via a Pentium processor-based personal computer. Data were acquired using the pCLAMP software sampled at 10 kHz, filtered at 2–10 kHz, and analyzed with Clampfit (versions 9.0, both from Axon Instruments, Foster City, CA, USA). A series resistance between the pipette and cell membrane not higher than 20 MΩ was accepted. No series resistance compensation was used. The stability of series resistance was monitored repeatedly from the time course of capacitative transients during the experiments. The measured liquid junction potential between extracellular and intracellular solutions was subtracted from all data presented, as previously described. All experiments were performed at room temperature (21–23 °C).
In all electrophysiological experiments, tetrahydro-deoxycorticosterone (THDOC) was used as a positive GABAA receptor steroid modulator (PAM) to mimic the effect of AP on central GABAA channels. […] THDOC (Sigma Chemical Co., St. Louis, MO, USA) and GR3027 (3α-ethynyl, 3β-hydroxyl, 5α-androstan-17-oxime, golexanolone, Umecrine Cognition AB, Stockholm, Sweden) were dissolved in dimethyl sulfoxide (DMSO) using ultrasound, for the preparation of solutions containing a final DMSO concentration of 0.1%. GR3027 was discovered within a series of molecules developed and patented by T. Bäckström and G. Ragagnin, (patent WO 2008/063128). All solutions were complemented with DMSO to achieve the same final concentration as in the steroid-containing test solution. GABA (Sigma Chemical Co., St. Louis, MO, USA) was first prepared as a stock solution (dissolved in EC with ultrasonic treatment) to the desired concentrations, with the corresponding final concentrations of test solutions (30 µM and 0.3 µM; see protocols below). GABA was added to the experimental solution without a change in osmolarity.
The experimental protocols were designed to mimic the physiological conditions of the tonic (extra-synaptic) and phasic (synaptic) activation of GABAA receptors observed in central neurons, depending on the subunit compositions, respectively. GABA-evoked currents in HEK-293 cells expressing extra-synaptic (α5β3γ2L) or synaptic (α1β2γ2L) types of GABAA receptors were studied using the conventional whole-cell patch clamp technique. To mimic the physiological GABA exposure, the HEK-293 cells expressing α1β2γ2L GABAA receptors were exposed to short applications (40 ms) of 30 µM GABA, whereas HEK-293 cells expressing α5β3γ2L GABAA receptors were exposed to prolonged applications (6 s) of 0.3 µM GABA, either in the absence or presence of THDOC and/or GR3027.

T1 sequence (P31644 32-462): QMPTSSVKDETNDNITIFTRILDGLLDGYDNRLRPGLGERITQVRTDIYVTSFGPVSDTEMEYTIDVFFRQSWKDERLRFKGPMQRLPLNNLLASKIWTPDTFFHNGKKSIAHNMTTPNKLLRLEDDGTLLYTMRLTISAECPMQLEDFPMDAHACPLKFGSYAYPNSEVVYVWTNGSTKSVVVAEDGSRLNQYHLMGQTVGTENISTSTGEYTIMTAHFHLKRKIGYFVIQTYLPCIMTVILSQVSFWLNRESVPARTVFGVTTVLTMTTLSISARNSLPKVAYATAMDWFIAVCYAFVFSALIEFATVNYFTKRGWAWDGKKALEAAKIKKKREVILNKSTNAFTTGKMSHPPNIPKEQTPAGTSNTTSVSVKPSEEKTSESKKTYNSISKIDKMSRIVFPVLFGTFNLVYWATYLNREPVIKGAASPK
T1 sequence (P28472 26-473 isoform P28472-2 limits assumed): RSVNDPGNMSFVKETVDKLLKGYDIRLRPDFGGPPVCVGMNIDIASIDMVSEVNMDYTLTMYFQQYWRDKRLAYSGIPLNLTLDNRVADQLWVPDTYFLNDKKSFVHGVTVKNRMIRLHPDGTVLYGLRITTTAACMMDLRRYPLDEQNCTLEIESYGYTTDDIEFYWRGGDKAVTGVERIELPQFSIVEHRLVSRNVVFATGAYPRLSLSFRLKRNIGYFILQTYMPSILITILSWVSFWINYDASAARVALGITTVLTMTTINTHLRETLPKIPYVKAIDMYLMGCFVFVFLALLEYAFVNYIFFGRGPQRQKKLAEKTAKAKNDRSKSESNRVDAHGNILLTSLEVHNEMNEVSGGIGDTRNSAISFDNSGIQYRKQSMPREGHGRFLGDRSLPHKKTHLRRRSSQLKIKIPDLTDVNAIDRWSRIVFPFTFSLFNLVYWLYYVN
T1 sequence (P18507 40-475 partner): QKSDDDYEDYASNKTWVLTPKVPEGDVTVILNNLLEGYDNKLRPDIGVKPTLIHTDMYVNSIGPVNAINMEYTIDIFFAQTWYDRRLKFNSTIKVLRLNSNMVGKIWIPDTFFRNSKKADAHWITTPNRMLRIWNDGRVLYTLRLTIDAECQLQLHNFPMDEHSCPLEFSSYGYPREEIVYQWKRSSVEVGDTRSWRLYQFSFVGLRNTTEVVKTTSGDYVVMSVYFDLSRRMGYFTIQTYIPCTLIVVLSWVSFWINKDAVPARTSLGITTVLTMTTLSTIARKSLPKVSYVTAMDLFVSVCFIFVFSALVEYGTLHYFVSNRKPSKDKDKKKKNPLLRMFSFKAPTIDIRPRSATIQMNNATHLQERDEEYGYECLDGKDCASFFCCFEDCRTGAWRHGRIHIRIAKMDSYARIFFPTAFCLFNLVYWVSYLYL

Structure (SMILES) | AUC of spontaneous miniature inhibitory postsynaptic currents vs vehicle [1] | Concentration in brain tissue after i.v. injections giving acute memory and learning disturbances [2] | pEC50 ([3]; EC50 of THDOC effect (outward shift in baseline holding current, direct activation), THDOC 30-300 nM, 0.3 µM GABA 6 s protocol, holding potential −17 mV) | THDOC Emax, % change in peak amplitude at 0.3 µM GABA ([3]; THDOC 0.01-1 µM + 0.3 µM GABA + 1 µM GR3027) | THDOC Emax, % change in peak amplitude at 0.3 µM GABA ([3]; THDOC 0.01-1 µM + 0.3 µM GABA + 3 µM GR3027) | THDOC Emax, % change in peak amplitude at 0.3 µM GABA ([3]; THDOC 0.01-1 µM + 0.3 µM GABA, no GR3027) | Emax of THDOC effect (outward shift in baseline holding current, direct activation) ([3]; THDOC 30-300 nM, 0.3 µM GABA 6 s protocol) | pEC50 ([3]; THDOC EC50, enhancement of GABA-evoked peak amplitude, THDOC 0.01-1 µM + 0.3 µM GABA + 1 µM GR3027) | pEC50 ([3]; THDOC EC50, enhancement of GABA-evoked peak amplitude, THDOC 0.01-1 µM + 0.3 µM GABA + 3 µM GR3027) | pEC50 ([3]; THDOC EC50, enhancement of GABA-evoked peak amplitude, THDOC 0.01-1 µM + 0.3 µM GABA, no GR3027)
CC(=O)[C@H]1CC[C@H]2[C@@H]3CC[C@H]4C[C@H](O)CC[C@]4(C)[C@H]3CC[C@]12C [AP, 3α-OH-5α-pregnan-20-one] | significantly higher | 1 to 2 µM |  |  |  |  |  |  |  | 
C[C@]12CC[C@@H](O)C[C@@H]1CC[C@@H]1[C@@H]2CC[C@]2(C)[C@@H](C(=O)CO)CC[C@@H]12 [THDOC, 3α,21-dihydroxy-5α-pregnan-20-one, reference compound] |  |  | 7.49 | 489% | 482% | 687% | 145% | 6.66 | 6.46 | 6.72
